Among the data in patent US20260125375A1 (Pfizer Inc., priority 2022, published 2026) are Ki values, retold here.

One test deals with T1, C-CBL (residues 46-435) (Homo sapiens, UniProt P22681).
T1 construct: Purified CBL-B (residues 36-427) and C-CBL (residues 46-435) proteins from baculovirus-infected insect cells; made in house; host or cells: baculovirus-infected insect cells
T1 sequence (P22681 46-435): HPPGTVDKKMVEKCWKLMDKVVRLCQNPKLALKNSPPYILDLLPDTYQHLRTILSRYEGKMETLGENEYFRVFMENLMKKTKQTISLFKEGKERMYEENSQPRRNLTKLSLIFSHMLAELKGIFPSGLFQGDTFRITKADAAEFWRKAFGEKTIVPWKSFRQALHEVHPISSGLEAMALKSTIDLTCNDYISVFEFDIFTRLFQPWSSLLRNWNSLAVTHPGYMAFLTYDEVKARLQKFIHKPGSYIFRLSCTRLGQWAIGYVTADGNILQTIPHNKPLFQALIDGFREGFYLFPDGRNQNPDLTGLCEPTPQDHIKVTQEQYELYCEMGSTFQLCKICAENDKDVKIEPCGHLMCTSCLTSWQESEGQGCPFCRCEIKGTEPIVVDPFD
As to the kind of experiment: Ligand Displacement Assay (LDA), HTRF competitive binding against BODIPY-labeled fluorescent tracer, C-CBL. Conditions: geometric mean of the number of tests, read-out: C-CBL Ki (nM) GMean. From the text: (§1) Ligand Displacement Assay (LDA)
(§2) The purpose of the homogeneous time-resolved fluorescence energy transfer (HTRF) ligand displacement assay is to determine whether the compounds of the disclosure are competitive with a BODIPY-labeled compound; “fluorescent tracer” aka [6-cyclopropyl-5-(17-{5-[(3,5-dimethyl-2H-pyrrol-2-ylidene-KN)methyl]-1H-pyrrol-2-yl-κN}-15-oxo-5,8,11-trioxa-2,14-diazaheptadecan-1-yl)-N-(3-{3-[(4-methyl-4H-1,2,4-triazol-3-yl)methyl]oxetan-3-yl}phenyl)pyridine-2-carboxamidato](difluorido)boron and to assess CBL-B binding selectivity over C-CBL. The synthesis of this fluorescent tracer compound is described below.
(§3) Purified CBL-B (residues 36-427) and C-CBL (residues 46-435) proteins from baculovirus-infected insect cells were biotin labeled on their amino-terminal AviTag™ epitopes by the E. coli biotin ligase BirA to bind terbium-labeled streptavidin (SA-Tb). After optimizing the assays and determining KD values for the fluorescent tracer to CBL-B and C-CBL, compounds were tested using three-fold serial dilutions in duplicate from a top concentration of […] with a final DMSO concentration of 2%. […] The Ki (nM) values reported are the geometric means (GMean) of the number of tests conducted.
On the technique in general: Time-resolved FRET reads energy transfer from a long-lived donor to a nearby acceptor.

The next test deals with T2, CBL-B (residues 36-427) (Homo sapiens, UniProt Q13191).
T2 construct: Purified CBL-B (residues 36-427) and C-CBL (residues 46-435) proteins from baculovirus-infected insect cells; made in house; host or cells: baculovirus-infected insect cells
As to the kind of experiment: Ligand Displacement Assay (LDA), HTRF competitive binding against BODIPY-labeled fluorescent tracer, CBL-B. The conditions noted are these: geometric mean of the number of tests, read-out: CBL-B Ki (nM) GMean.
Text: as §1, §2, §3

In the case of `C[C@H](N)c1nc(C(F)(F)F)cc2c(-c3cccc([C@H](c4nncn4C)C4CCCCC4)c3)n[nH]c12` [Example K2, (1S)-1-[3-{3-[(R)-cyclohexyl(4-methyl-4H-1,2,4-triazol-3-yl)methyl]phenyl}-5-(trifluoromethyl)-1H-pyrazolo[3,4-c]pyridin-7-yl]ethan-1-amine], the results for the Ki on C-CBL (residues 46-435) and on CBL-B (residues 36-427) were 287 nM and 48.6 nM, respectively.

As for `CC(=O)NC(C)c1nc(C(F)(F)F)cc2c(-c3cccc(C4(Cc5nncn5C)COC4)c3)n[nH]c12` (single isomer, unassigned) [Example M6, N-{(1ξ)-1-[3-(3-{3-[(4-methyl-4H-1,2,4-triazol-3-yl)methyl]oxetan-3-yl}phenyl)-5-(trifluoromethyl)-1H-pyrazolo[3,4-c]pyridin-7-yl]ethyl}acetamide], the figures for the Ki at C-CBL (residues 46-435) and on CBL-B (residues 36-427) were 68.6 nM and 19.5 nM, respectively.

As to `Cn1cnnc1CC1(c2cccc(-c3n[nH]c4c(OC5CCCC5)nc(C(F)(F)F)cc34)c2)COC1` [Example J7, 7-(cyclopentyloxy)-3-(3-{3-[(4-methyl-4H-1,2,4-triazol-3-yl)methyl]oxetan-3-yl}phenyl)-5-(trifluoromethyl)-1H-pyrazolo[3,4-c]pyridine], the Ki was 420 nM at C-CBL (residues 46-435) and 92 nM at CBL-B (residues 36-427).

For `C[C@H](NC(=O)OC(C)(C)C)c1nc(C(F)(F)F)cc2c(-c3cccc(C4(Cc5nncn5C)COC4)c3)n[nH]c12` [Example K8], the figures for the inhibition constant Ki at C-CBL (residues 46-435) and at CBL-B (residues 36-427) were 133 nM and 33.4 nM, respectively.

Regarding `Cn1cnnc1[C@@H](c1cccc(-c2n[nH]c3c(C4CCCN4)nc(C(F)(F)F)cc23)c1)C1CCC1` (single isomer, unassigned) [Example L4], the inhibition constant Ki at C-CBL (residues 46-435) is 178 nM; at CBL-B (residues 36-427) it was 19.2 nM.

Usually Ki stands for the equilibrium dissociation constant of an inhibitor or competing ligand from its target.
